Structures can show the parent of a compound that is named as a salt.
| SMILES | melting point [°C] |
| --- | --- |
| Cc1cc(-c2cscn2)ccc1-c1cc(C(F)(F)F)nn1-c1ccc(S(C)(=O)=O)c(F)c1 (as salt: methanesulfonate) [Example 187, 1-[3-Fluoro4-(methylsulfonyl)phenyl]-5-[2-methyl-4-(4-thiazolyl)phenyl]-3-trifluoromethyl-1H-pyrazole] | 131.9 |
| Cc1ccc(-c2ccc(S(C)(=O)=O)c(F)c2)n1-c1ccc(-c2ccco2)cc1 [Example 35, 5-[3-Fluoro-4-(methylsulfonyl)phenyl]-1-[4-(2-furyl)phenyl]-2-methyl-1H-pyrrole] | 179 to 182 |
| Cc1onc(-c2ccc(-c3cscn3)cc2)c1-c1ccc(S(N)(=O)=O)cc1 [Example 171, 4-{5-Methyl-3-[4-(1,3-thiazol-4-yl)phenyl]-4-isoxazolyl}benzenesulfonamide] | 112 to 115 |
| Cc1nc(-c2ccc(-c3ccco3)cc2)c(-c2ccc(S(C)(=O)=O)cc2)o1 [Example 51, 4-[4-(2-Furyl)phenyl]-2-methyl-5-[4-(methylsulfonyl)phenyl]oxazole] | 143 to 144 |
| CS(=O)(=O)c1ccc(C2=C(c3ccc(-c4cscn4)cc3)C(=O)OC2)cc1 [Example 182, 4-[4-(Methylsulfonyl)phenyl]-3-[4-(1,3-thiazol-4-yl)phenyl]-2(5H)-furanone] | 236.8 |
| CS(=O)(=O)c1ccc(-n2nc(C(F)(F)F)cc2-c2ccc(-c3nccs3)cc2)cc1 [Example 22, 1-[4-(Methylsulfonyl)phenyl]-5-[4-(2-thiazolyl)phenyl]-3-trifluoromethyl-1H-pyrazole] | 206 to 207 |
| Cc1noc(-c2ccc(-c3cscn3)cc2)c1-c1ccc(S(N)(=O)=O)cc1 [Example 190, 4-[3-Methyl-5-[4-(1,3-thiazol-4-yl)phenyl]-4-isoxazolyl]benzenesulfonamide] | 236 |
| Cc1cc(S(N)(=O)=O)ccc1-n1nc(C(F)(F)F)cc1-c1ccc(-c2ccco2)cc1 (as salt: hydrochloride) [Example 145, 4-[5-[4-(2-Furyl)phenyl]-3-(trifluoromethyl)-1H-pyrazol-1-yl]-3-methylbenzenesulfonamide] | 87 to 89 |
| CS(=O)(=O)c1ccc(-n2nc(C(F)(F)F)cc2-c2ccc(-c3ccoc3)cc2)cc1F [Example 85, 1-[3-Fluoro-4-(methylsulfonyl)phenyl]-5-[4-(3-furyl)phenyl]-3-(trifluoromethyl)-1H-pyrazole] | 74 to 76 |
| CN(C)C(=O)c1cc(-c2ccc(-c3ccco3)cc2)n(-c2ccc(S(C)(=O)=O)c(F)c2)n1 (as salt: hydrochloride) [Example 133, N,N-Dimethyl-1-[3-fluoro-4-(methylsulfonyl)phenyl]-5-[4-(2-furyl)phenyl]-1H-pyrazole-3-carboxamide] | 167 to 168 |
| NS(=O)(=O)c1ccc(-n2nc(C(F)(F)F)cc2-c2ccc(-c3ncco3)cc2)cc1 (as salt: hydrochloride) [Example 98, 4-[5-[4-(1,3-Oxazol-2-yl)phenyl]-3-(trifluoromethyl)-1H-pyrazol-1-yl]benzenesulfonamide] | 215 to 217 |
| NS(=O)(=O)c1ccc(-n2nc(C(F)(F)F)cc2-c2ccc(-c3cscn3)c(O)c2)cc1F (as salt: hydrochloride) [Example 174, 2-Fluoro-4-[5-[3-hydroxy-4-(1,3-thiazol-4-yl)phenyl]-3-(trifluoromethyl)-1H-pyrazol-1-yl]benzenesulfonamide] | 224 to 226 |
| Cc1cc(-n2nc(C(F)(F)F)cc2-c2ccc(-c3ccco3)cc2)ccc1S(N)(=O)=O (as salt: hydrochloride) [Example 143, 4-[5-[4-(2-Furyl)phenyl]-3-(trifluoromethyl)-1H-pyrazol-1-yl]-2-methylbenzenesulfonamide] | 137.4 |
| Cc1ccc(-c2ccc(S(C)(=O)=O)c(F)c2)n1-c1ccc(-c2cscn2)cc1 [Example 151, 5-[3-Fluoro-4-(methylsulfonyl)phenyl]-2-methyl-1-[4-(4-thiazolyl)phenyl]-1H-pyrrole] | 215 |

— patent US6949536B2, “Sulfonylbenzene compounds as anti-inflammatory/analgesic agents” (Pfizer, Inc., priority 1998, dated 2005)
